The record followed here is PubChem BioAssay (NCI).

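Compound exposure: 48 hours, 5 concentrations, 96-well plates. TGI marks complete inhibition of growth.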 Where a SMILES comes first, the peptide text is derived from it. The star is where a group is joined. Boc = CC(C)(C)OC(=O)*

Test systems include DU-145 prostate; HCT-116 colon; HOP-62 NSCLC; HOP-92 NSCLC; MDA-MB-435; NCI/ADR-RES ovarian; RXF 393 renal; SF-295 CNS; SK-MEL-2 melanoma; SN12C renal; U251 CNS.
Assay in all cases: DTP human tumour cell line panel, 48 h

`CCOP(=O)(CCCC(O)CNc1nc(N)nc(Cl)c1N=Nc1ccc(Cl)cc1)OCC` (stereo unspecified): the TGI in the assay on DU-145 prostate amounted to 18.2 µM; in the assay with HCT-116 colon it was 21.7 µM; in the assay with HOP-62 NSCLC, 24.8 µM; with HOP-92 NSCLC, 25.8 µM; in the assay on MDA-MB-435 it was 19 µM; in the assay with NCI/ADR-RES ovarian, 31 µM. The TGI in the assay with RXF 393 renal was 18.5 µM; in the assay with SF-295 CNS, 21.7 µM; in the assay with SK-MEL-2 melanoma, 27.3 µM; with SN12C renal, 18.2 µM; with U251 CNS it was 22.7 µM.

On to `COC(=O)C(Cc1ccccc1)NC(=O)C(CS)NC(=O)OC(C)(C)C` (stereo not drawn) (Boc-Cys-Phe-OMe; configuration not given here), for which the TGI in the assay on DU-145 prostate, in the assay on HCT-116 colon, in the assay on HOP-62 NSCLC, with HOP-92 NSCLC, in the assay with MDA-MB-435 and in the assay with NCI/ADR-RES ovarian was over 100 µM in each case. Besides, the TGI in the assay with RXF 393 renal, in the assay on SF-295 CNS, with SK-MEL-2 melanoma, with SN12C renal and in the assay with U251 CNS was over 100 µM each time.

Consider `CNC(=O)N(CCC#N)CCN(C(=O)NC)c1ccccc1`, for which the concentration for total growth inhibition (TGI) in the assay with DU-145 prostate, in the assay on HCT-116 colon, with HOP-62 NSCLC, in the assay on HOP-92 NSCLC, in the assay with MDA-MB-435 and in the assay with NCI/ADR-RES ovarian was over 100 µM throughout. The TGI in the assay with RXF 393 renal, in the assay on SF-295 CNS, with SK-MEL-2 melanoma, with SN12C renal and in the assay with U251 CNS was over 100 µM each time.

For `COc1cc(C2c3cc4c(cc3OC(NNc3ccccc3)C2C)OCO4)cc(OC)c1OC` (stereo unspecified), the TGI in the assay with DU-145 prostate was over 31.2 µM; in the assay on HCT-116 colon it was 13.9 µM; in the assay on HOP-62 NSCLC, 10.4 µM; with HOP-92 NSCLC, 52.1 µM; in the assay on MDA-MB-435, 1.31 µM; in the assay on NCI/ADR-RES ovarian, 58.6 µM. Also, the total growth inhibition concentration (TGI) with RXF 393 renal is over 94.3 µM; in the assay with SF-295 CNS, 5.11 µM; in the assay on SK-MEL-2 melanoma it was 38.6 µM; in the assay on SN12C renal it was over 62 µM; in the assay on U251 CNS, 13.2 µM.

Take `Cc1c(Cc2ccccc2)n(C(C)OCCN(OC(=O)Oc2ccccc2)C(=O)Oc2ccccc2)c(=O)[nH]c1=O` (stereo unspecified): the TGI in the assay on DU-145 prostate was found to be 85.1 µM; in the assay on HCT-116 colon, 41.6 µM; with HOP-62 NSCLC it was 36.7 µM; in the assay with HOP-92 NSCLC, 29.7 µM; with MDA-MB-435, 56.5 µM; in the assay on NCI/ADR-RES ovarian, 39.1 µM. The concentration for total growth inhibition (TGI) with RXF 393 renal worked out at 30.1 µM; in the assay on SF-295 CNS it was 30.8 µM; with SK-MEL-2 melanoma it was 37.2 µM; in the assay with SN12C renal, 40.5 µM; in the assay with U251 CNS, 38.3 µM.

As for `COc1ccccc1NC(=S)N=Nc1c(O)[nH]c2ccccc12`, the TGI with DU-145 prostate is 13.7 µM; with HCT-116 colon it was over 100 µM; in the assay with HOP-62 NSCLC, over 100 µM; with HOP-92 NSCLC it was over 100 µM; in the assay on MDA-MB-435, over 100 µM; with NCI/ADR-RES ovarian, over 100 µM. For the same compound, the TGI in the assay on RXF 393 renal, in the assay with SF-295 CNS, in the assay on SK-MEL-2 melanoma, in the assay on SN12C renal and with U251 CNS was over 100 µM throughout.

Regarding `Cn1c2ccc(F)cc2c2ccc3c(c21)C(=O)C=CC3=O`, the TGI with DU-145 prostate was 43.3 µM; in the assay with HCT-116 colon, 20.3 µM; in the assay on HOP-62 NSCLC, over 100 µM; in the assay with HOP-92 NSCLC, 15.5 µM; with MDA-MB-435, 38.1 µM; in the assay with NCI/ADR-RES ovarian, 59.6 µM. Further, the TGI is 10.5 µM with RXF 393 renal; over 100 µM with SF-295 CNS; over 74.2 µM with SK-MEL-2 melanoma; 31 µM in the assay with SN12C renal; 23.9 µM in the assay with U251 CNS.

Regarding `CC(C)NC(=O)OCc1c(COC(=O)NC(C)C)c(-c2ccc[n+](COC(=O)Cc3ccccc3)c2)n2c1CCC2`, the TGI in the assay with DU-145 prostate is 67.7 µM; in the assay with HCT-116 colon, over 100 µM; in the assay on HOP-62 NSCLC, over 100 µM; in the assay with HOP-92 NSCLC, 46.2 µM; in the assay with MDA-MB-435 it was over 100 µM; in the assay with NCI/ADR-RES ovarian, over 100 µM. For the same compound, the TGI with RXF 393 renal was 67.3 µM; in the assay on SF-295 CNS it was over 100 µM; in the assay on SK-MEL-2 melanoma it was 62.1 µM; with SN12C renal, over 100 µM; in the assay on U251 CNS, over 100 µM.

`O=c1[nH]c(=O)c2ncn(-c3ccc([N+](=O)[O-])cn3)c2[nH]1`: the TGI with DU-145 prostate, with HCT-116 colon, with HOP-62 NSCLC, in the assay with HOP-92 NSCLC, with MDA-MB-435 and in the assay with NCI/ADR-RES ovarian was over 100 µM in each case. Besides, the TGI with RXF 393 renal, with SF-295 CNS, with SK-MEL-2 melanoma, in the assay on SN12C renal and in the assay on U251 CNS was over 100 µM each time.

With `CN(C)CN1CSC(=S)N(CN(C)C)C1`, the concentration for total growth inhibition (TGI) in the assay with DU-145 prostate, in the assay on HCT-116 colon, with HOP-62 NSCLC, in the assay with HOP-92 NSCLC, with MDA-MB-435 and with NCI/ADR-RES ovarian was over 100 µM in each case. Further, the TGI was over 100 µM in the assay with RXF 393 renal; over 100 µM in the assay with SF-295 CNS; 96.3 µM with SK-MEL-2 melanoma; over 100 µM in the assay on SN12C renal; over 100 µM in the assay with U251 CNS.

As for `COC(=O)c1c(O)ccc2c1c1cc3ccccc3cc1n2Cc1cc(OC)cc(OC)c1`, the TGI in the assay with DU-145 prostate was 59.1 µM; in the assay with HCT-116 colon it was over 100 µM; in the assay on HOP-62 NSCLC, over 100 µM; in the assay on HOP-92 NSCLC, over 100 µM; in the assay with MDA-MB-435 it was 1.86 µM; in the assay on NCI/ADR-RES ovarian, over 29.2 µM. Besides, the TGI in the assay with RXF 393 renal was over 26.5 µM; in the assay with SF-295 CNS, 7.18 µM; in the assay on SK-MEL-2 melanoma, 24.6 µM; in the assay with SN12C renal, over 100 µM; in the assay on U251 CNS it was over 100 µM.

As a reminder, the TGI is the concentration giving total growth inhibition.
